According to ChEMBL document CHEMBL5523719, “Structure-activity relationship study of new carbazole sulfonamide derivatives as anticancer agents with dual-target mechanism” (Eur J Med Chem, 2024):
Active and inactive are the calls of the source. No cut-off for these calls is given here.

Assays:
[1] = tested on: MDA-MB-231; assay: Antiproliferation activity against human MDA-MB-231 cells measured after 72 hrs incubation by MTT assay; assay type: functional, cell-based; conditions: MDA-MB-231, 72 h
[2] = tested on: MIA PaCa-2; assay: Antiproliferation activity against human MIA PaCa-2 cells measured after 72 hrs incubation by MTT assay; assay type: functional, cell-based; conditions: MIA PaCa-2, 72 h
[3] = tested on: NCI-H460; assay: Antiproliferation activity against human NCI-H460 cells measured after 72 hrs incubation by MTT assay; assay type: functional, cell-based; conditions: NCI-H460, 72 h
[4] = tested on: KB; assay: Antiproliferation activity against human KB cells measured after 72 hrs incubation by MTT assay; assay type: functional, cell-based
[5] = tested on: L02; assay: Antiproliferation activity against human L02 cells measured after 72 hrs incubation by MTT assay; assay type: functional, cell-based; conditions: L02, 72 h
[6] = tested on: MCF7; assay: Antiproliferation activity against human MCF7 cells measured after 72 hrs incubation by MTT assay; assay type: functional, cell-based; conditions: MCF7, 72 h
[7] = tested on: NCI/ADR-RES; assay: Antiproliferation activity against human MCF7/ADR cells measured after 72 hrs incubation by MTT assay; assay type: functional, cell-based
[8] = molecular target: T1, Tubulin (Homo sapiens) (UniProt P68371+Q9H4B7+P0DPH7+P68366+Q13509+Q71U36+P04350+Q3ZCM7+P07437+P68363+Q9BQE3+Q6PEY2+Q13885+Q9BVA1+Q9BUF5); assay: In vitro inhibition of microtubule (unknown origin) assembly at 10 uM; assay type: protein-complex assay
[9] = molecular target: T1, Tubulin (Homo sapiens); assay: Inhibition of microtubule assembly in human MCF7 cells assessed as disrupted microtubule network at 50 uM measured after 24 hrs incubation by anti-alpha-tubulin antibody (green) and Hoechst 33342 (blue) stained nuclei were obtained under microscopy; assay type: cell-based
[10] = molecular target: T1, Tubulin (Homo sapiens); assay: Inhibition of microtubule assembly in human HepG2 cells assessed as disrupted microtubule network at 50 uM measured after 24 hrs incubation by anti-alpha-tubulin antibody (green) and Hoechst 33342 (blue) stained nuclei were obtained under microscopy; assay type: cell-based
[11] = molecular target: Tubulin beta (Homo sapiens) (UniProt P68371+Q9H4B7+Q13509+P04350+Q3ZCM7+P07437+Q13885+Q9BVA1+Q9BUF5+A6NNZ2); assay: Binding affinity to beta-tubulin colchicine binding site in human MCF7 cells assessed as inhibition of EBI-beta-tubulin adduct band formation preincubated for 2 hrs followed by EBI addition measured after 2 hrs by EBI competition based Western blotting analysis; assay type: cell-based; conditions: dose 12.5-100 nM
[12] = tested on: MCF7; assay: Induction of cell cycle arrest in human MCF7 cells assessed as accumulation of cells at G2/M phase at 4 nM measured after 24 hrs by flow cytometry (reference value: 22.84%); assay type: functional
[13] = tested on: MCF7; assay: Induction of cell cycle arrest in human MCF7 cells assessed as accumulation of cells at G2/M phase at 25 nM measured after 24 hrs by flow cytometry (reference value: 22.84%); assay type: functional
[14] = tested on: MCF7; assay: Induction of cell cycle arrest in human MCF7 cells assessed as accumulation of cells at G2/M phase at 100 nM measured after 24 hrs by flow cytometry (reference value: 22.84%); assay type: functional
[15] = tested on: MCF7; assay: Induction of cell cycle arrest in human MCF7 cells assessed as accumulation of cells at G2/M phase at 500 nM measured after 24 hrs by flow cytometry (reference value: 22.84%); assay type: functional
[16] = tested on: MCF7; assay: Induction of cell cycle arrest in human MCF7 cells assessed as accumulation of cells at G0/G1 phase at 4 nM measured after 24 hrs by flow cytometry (reference value: 61.73%); assay type: functional
[17] = tested on: MCF7; assay: Induction of cell cycle arrest in human MCF7 cells assessed as accumulation of cells at G0/G1 phase at 25 nM measured after 24 hrs by flow cytometry (reference value: 61.73%); assay type: functional
[18] = tested on: MCF7; assay: Induction of cell cycle arrest in human MCF7 cells assessed as accumulation of cells at G0/G1 phase at 100 nM measured after 24 hrs by flow cytometry (reference value: 61.73%); assay type: functional
[19] = tested on: MCF7; assay: Induction of cell cycle arrest in human MCF7 cells assessed as accumulation of cells at G0/G1 phase at 500 nM measured after 24 hrs by flow cytometry (reference value: 61.73%); assay type: functional
[20] = tested on: MCF7; assay: Induction of cell cycle arrest in human MCF7 cells assessed as increase in cyclin B1 protein expression at […] by Western blot analysis; assay type: functional, cell-based; conditions: dose lower 6.25 µM
[21] = tested on: MCF7; assay: Induction of cell cycle arrest in human MCF7 cells assessed as increase in phosphorylation of histone H3 at […] by Western blot analysis; assay type: functional, cell-based; conditions: dose lower 6.25 µM
[22] = tested on: MCF7; assay: Induction of apoptosis in human MCF7 cells assessed as early apoptotic cells at 6.25 nM measured after 48 hrs by AnnexinV/PI double staining assays (reference value: 5.32%); assay type: functional
[23] = tested on: MCF7; assay: Induction of apoptosis in human MCF7 cells assessed as viable cells at 6.25 nM measured after 48 hrs by AnnexinV/PI double staining assays (reference value: 91.20%); assay type: functional; conditions: read-out: Activity
[24] = tested on: MCF7; assay: Induction of apoptosis in human MCF7 cells assessed as late apoptotic cells at 6.25 nM measured after 48 hrs by AnnexinV/PI double staining assays (reference value: 2.60%); assay type: functional
[25] = tested on: MCF7; assay: Induction of apoptosis in human MCF7 cells assessed as necrotic cells at 6.25 nM measured after 48 hrs by AnnexinV/PI double staining assays (reference value: 0.89%); assay type: functional
[26] = tested on: MCF7; assay: Induction of apoptosis in human MCF7 cells assessed as viable cells at 12.5 nM measured after 48 hrs by AnnexinV/PI double staining assays (reference value: 91.20%); assay type: functional; conditions: read-out: Activity
[27] = tested on: MCF7; assay: Induction of apoptosis in human MCF7 cells assessed as early apoptotic cells at 12.5 nM measured after 48 hrs by AnnexinV/PI double staining assays (reference value: 5.32%); assay type: functional
[28] = tested on: MCF7; assay: Induction of apoptosis in human MCF7 cells assessed as late apoptotic cells at 12.5 nM measured after 48 hrs by AnnexinV/PI double staining assays (reference value: 2.60%); assay type: functional
[29] = tested on: MCF7; assay: Induction of apoptosis in human MCF7 cells assessed as necrotic cells at 12.5 nM measured after 48 hrs by AnnexinV/PI double staining assays (reference value: 0.89%); assay type: functional
[30] = tested on: MCF7; assay: Induction of apoptosis in human MCF7 cells assessed as viable cells at 25 nM measured after 48 hrs by AnnexinV/PI double staining assays (reference value: 91.20%); assay type: functional; conditions: read-out: Activity
[31] = tested on: MCF7; assay: Induction of apoptosis in human MCF7 cells assessed as early apoptotic cells at 25 nM measured after 48 hrs by AnnexinV/PI double staining assays (reference value: 5.32%); assay type: functional
[32] = tested on: MCF7; assay: Induction of apoptosis in human MCF7 cells assessed as late apoptotic cells at 25 nM measured after 48 hrs by AnnexinV/PI double staining assays (reference value: 2.60%); assay type: functional
[33] = tested on: MCF7; assay: Induction of apoptosis in human MCF7 cells assessed as necrotic cells at 25 nM measured after 48 hrs by AnnexinV/PI double staining assays (reference value: 0.89%); assay type: functional
[34] = tested on: MCF7; assay: Induction of apoptosis in human MCF7 cells assessed as viable cells at 50 nM measured after 48 hrs by AnnexinV/PI double staining assays (reference value: 91.20%); assay type: functional; conditions: read-out: Activity
[35] = tested on: MCF7; assay: Induction of apoptosis in human MCF7 cells assessed as early apoptotic cells at 50 nM measured after 48 hrs by AnnexinV/PI double staining assays (reference value: 5.32%); assay type: functional
[36] = tested on: MCF7; assay: Induction of apoptosis in human MCF7 cells assessed as late apoptotic cells at 50 nM measured after 48 hrs by AnnexinV/PI double staining assays (reference value: 2.60%); assay type: functional
[37] = tested on: MCF7; assay: Induction of apoptosis in human MCF7 cells assessed as necrotic cells at 50 nM measured after 48 hrs by AnnexinV/PI double staining assays (reference value: 0.89%); assay type: functional
[38] = tested on: MCF7; assay: Induction of apoptosis in human MCF7 cells assessed as multinuclear cells at 5 nM measured after 24 hrs by fluorescent microscopy; assay type: functional
[39] = tested on: MCF7; assay: Induction of apoptosis in human MCF7 cells assessed as karyorrhexis at 5 nM measured after 24 hrs by fluorescent microscopy; assay type: functional
[40] = tested on: HMEC-1; assay: Anti-proliferative activity against human HMEC-1 cells measured after 48 hrs; assay type: functional, cell-based; conditions: HMEC-1, 48 h
[41] = tested on: HMEC-1; assay: Anti-migration activity in human HMEC-1 cells assessed as inhibition of cell migration at 5 nM measured after 48 hrs by Scratching assay; assay type: functional, cell-based
[42] = tested on: HMEC-1; assay: Angiogenic activity against human HMEC-1 cells assessed as decrease in vascular area measured after 48 hrs by Endothelial tube formation assay; assay type: functional, cell-based; conditions: dose 1-100 nM

COc1cc(NS(=O)(=O)c2ccc3c(c2)c2ccc(O)cc2n3C)c(OC)cc1Cl
IC50 [1]: 5.19 nM | IC50 [2]: 0.81 nM | IC50 [3]: 12.4 nM | IC50 [4]: 9.37 nM | IC50 [5]: 53.7 nM | IC50 [6]: 24.3 nM | IC50 [7]: 7.56 nM | inhibition [8]: Active | inhibition [9]: Active | inhibition [10]: Active | Activity [11]: Active | Activity [12]: 17.8% | Activity [13]: 17.8% | Activity [14]: 17.8% | Activity [15]: 50.6% | Activity [16]: 37.05% | Activity [17]: 6.65% | Activity [18]: 3.93% | Activity [19]: 3.82% | Activity [20]: Dose-Dependent Effect | Activity [21]: Dose-Dependent Effect | Activity [22]: 34.89% | viability at 0.00625 µM [23]: 56.2% | Activity [24]: 8.89% | Activity [25]: 0.05% | viability at 0.0125 µM [26]: 49.2% | Activity [27]: 43.24% | Activity [28]: 7.54% | Activity [29]: 0.06% | viability at 0.025 µM [30]: 36.8% | Activity [31]: 49.44% | Activity [32]: 13.75% | Activity [33]: 0.06% | viability at 0.05 µM [34]: 46.3% | Activity [35]: 42.87% | Activity [36]: 10.8% | Activity [37]: 0.07% | Activity [38]: 46.27% | Activity [39]: 42.87% | IC50 [40]: 6.42 nM | inhibition [41]: Active | Activity [42]: Dose-Dependent Effect
